Reference: patent US20040005708A1, “Polypeptide derivatives and nucleic acid carriers containing the same” (priority 2002, published 2004)

Tests used:
[1] = system: HepG2 cells; settings: Plasmid A (luciferase) complex, plasmid/pDBA weight ratio 1/3 to 1/7, 10% fetal bovine serum, 4 h then 48 h incubation, compared to non-modified pDBA
Procedure: Thirty minutes prior to administration, the nucleic acid carriers were added dropwise to the plasmid solution while stirring to prepare plasmid/pDBA complex solutions. PBS was used as solvent. Specifically, 25.0 μg/ml plasmid solutions were prepared, and plasmid/pDBA complex solutions having a plasmid concentration of 12.5 μg/ml were used as the gene transfer samples.
HepG2 cells were inoculated onto a 12-well multi-well plate (Coaster Inc.) at 1×10^5 cells/well one day prior to testing. The plasmid/pDBA complex solution was added to the HepG2 cells in the presence of 10% fetal bovine serum (Sanko Junyaku Co. Ltd.), and incubation was carried out at 37° C. for 4 hours. Medium was exchanged with a fresh culture medium and incubation continued for 48 hours. After washing with PBS twice, a cell lysis reagent (Toyo Ink Co. Ltd.) was added and freeze-thaw was carried out once. The cell lysate was recovered and subjected to centrifugation (12,000 rpm×10 minutes). The luciferase activity of the supernatant was determined with a luminometer (LumitLB9501; Berthold Inc.) using a luciferase assay system (Toyo Ink Co. Ltd.). The protein concentration of the centrifuged supernatant was also determined with a microplate reader (Rainbow Themo; Tecan Inc.) using a protein assay kit (Bio-Rad Inc.). […]

[2] = system: mice; settings: tail vein, Plasmid A 12.5 μg/0.5 ml per mouse, plasmid/pDBA weight ratio 1/3, two days after administration
Procedure: A solution of Plasmid A and a solution of pDBA were prepared at twice the desired concentration. Thirty minutes prior to administration, the pDBA solutions were added dropwise to the plasmid solution while stirring to prepare plasmid/pDBA complexes solution. PBS was used as solvent. Specifically, 50.0 μg/ml plasmid solutions were prepared, and plasmid/pDBA complex solutions having a plasmid concentration of 25 μg/ml were used as the gene transfer samples.
The complex solutions were administered to mice through their tail veins. The dosage of Plasmid A per mouse was 12.5 μg/0.5 ml. Two days after administration the gene transfer to the tissue was determined by measuring the luciferase activity found in the liver.

In the case of “side chain galactose-modified poly-DL-diaminobutyric acid [Gal-pDBA]”, the “activity of luciferase expressed” value [1] is reported as “higher luciferase activity than did non-modified pDBA” and the “luciferase activity in the liver as compared to the group where pDBA was used as the nucleic acid carrier” value [2] is reported as “about 2.5 fold”.
